Data set [1] can be described thus: Pharmacokinetic study in mice. The data set is classed as in vivo. The note with it: mouse, male mice, plasma; for AUC(0-t): read-out: AUC0-t; for Cmax: read-out: Cmax. Here is the method:
Six male mice weighing 20-30 g were randomly divided into two groups. One group received an intravenous (IV) administration of the test compound at a dose of 2 mg/kg, while the other group received an oral (gavage) administration at a dose of 10 mg/kg. Blood samples were collected at 0.083, 0.25, 0.5, 1, 2, 4, 6, 8, and 24 hours post-administration. Plasma samples were processed and analyzed using LC/MS/MS in MRM)mode. A validated standard curve was established for the quantitative determination of the target compound in plasma, enabling the generation of plasma drug concentration-time profiles. Pharmacokinetic parameters were calculated using WinNonlin software with a non-compartmental model.

Another data set deals with T1, IRAK4 protein (Homo sapiens, UniProt Q9NWZ3).
T1 sequence (Q9NWZ3 1-460): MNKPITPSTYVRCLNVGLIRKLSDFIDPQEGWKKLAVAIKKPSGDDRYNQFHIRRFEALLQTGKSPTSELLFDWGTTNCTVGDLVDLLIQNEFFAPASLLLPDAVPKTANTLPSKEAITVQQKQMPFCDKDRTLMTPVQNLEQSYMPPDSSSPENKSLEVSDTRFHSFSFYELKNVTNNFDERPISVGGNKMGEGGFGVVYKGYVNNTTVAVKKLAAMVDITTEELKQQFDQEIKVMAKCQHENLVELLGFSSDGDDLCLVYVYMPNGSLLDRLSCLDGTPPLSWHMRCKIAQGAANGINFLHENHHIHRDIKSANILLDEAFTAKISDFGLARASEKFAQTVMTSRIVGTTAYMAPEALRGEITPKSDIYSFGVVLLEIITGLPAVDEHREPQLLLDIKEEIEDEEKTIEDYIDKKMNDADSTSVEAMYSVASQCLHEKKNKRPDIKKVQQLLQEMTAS
Description: IRAK4 Degradation Assay in THP-1 Cells (Western Blot). The data set is classed as cell-based. Further details: endogenous in cells; host or cells: THP-1 cells. Here is the method: In a 6-well cell culture plate, an appropriate number of THP-1 cells were seeded. The plate was placed in a 5% CO2 incubator at 37°C for overnight culture. Then, the test compound's dimethyl sulfoxide solution was added, with the final concentration ranging from 0.0128 to 1000 nM. After continuous culture for 24 hours, the culture medium was removed, and the cells were collected in a 1.5 mL centrifuge tube. After adding lysis buffer and grinding thoroughly, the mixture was placed on ice for 30 minutes. It was then centrifuged at 15,000 xg and 4°C for 20 minutes. The supernatant was taken, and the level of IRAK4 protein was detected by Western Blot.

Experimental findings from patent EP4725946A1, “IRAK4 DEGRADATION AGENT AND USE THEREOF” (Guangzhou Unirise Pharmaceutical Co., Ltd., priority 2023, dated 2024) are described below.

Each structure is given as a SMILES string. Where two headings read alike, the source gives them in different places.

The term half-life denotes how long it takes for the measured level to halve. Higher therefore signals slow loss. A word on the Tmax: it is the time from dosing to the highest level. As usually defined, the Cmax is the highest concentration seen after dosing. Broadly, the Dmax is the greatest extent of degradation seen. One may read the DC50 as the concentration giving 50% degradation.

Take `Cn1c(=O)n(C2CCC(=O)NC2=O)c2cccc(N3CCC(CN4CCC5(CC4)Cc4cc(NC(=O)c6cnn7cccnc67)c(N6CCC(CO)CC6)cc4O5)CC3)c21` (stereo not shown) [Example 78]: in data set [1] (iv, i.v. (2 mg/kg)), the half-life is 33 h and the AUC(0-t) came to 32700 ng·h/mL. Besides, in data set [1] (po, p.o. (10 mg/kg)), the Tmax amounted to 1 h, the half-life is 6.58 h, the AUC(0-t) stood at 44900 ng·h/mL and the Cmax is 2600 ng/mL. The maximal degradation (Dmax) at IRAK4 protein (THP-1, THP-1 cells, 24 hours, 0.0128 to 1000 nM, IRAK4 protein level by Western Blot, read-out: Dmax%) turned out to be 94%. Besides, the DC50 at IRAK4 protein (THP-1 cells, 24 hours, 0.0128 to 1000 nM, IRAK4 protein level by Western Blot, read-out: DC50) came to 0.86 nM.

On to `Cn1c(=O)n(C2CCC(=O)NC2=O)c2cccc(N3CCN(CCN4CCC5(CC4)Cc4cc(NC(=O)c6cnn7cccnc67)c(N6CCC(CO)CC6)cc4O5)CC3)c21` (stereo not shown) [Example 95], for which, in data set [1] (iv, i.v. (2 mg/kg)), the half-life was 2.16 h and the AUC(0-t) was determined as 4570 ng·h/mL. Besides, in data set [1] (po, p.o. (10 mg/kg)), the time to peak (Tmax) was 2 h, the half-life is 2.78 h, the AUC(0-t) worked out at 11100 ng·h/mL and the Cmax is 1210 ng/mL. For the same compound, half-maximal degradation at IRAK4 protein (DC50) was put at 0.89 nM. Moreover, the Dmax on IRAK4 protein (THP-1) came out at 95%.
